Results taken from US20130210755A1, “METHODS FOR INHIBITING INSECT INFESTATIONS” (ELI LILLY AND COMPANY, priority 2010, published 2013).

Assays:
Format in all cases: in vivo
[1] = test system: stable fly (Stomoxys calcitrans); experiment: Fecal bioassay: emergence of adult stable flies from manure of horses given oral spinosad feed-through
Procedure: (§1) A study was conducted to evaluate the efficiency of oral spinosad feed-through for controlling development of immature stages of the house fly (Musca domestica) and stable fly (Stomoxys calcitrans) in the manure of treated horses. There were five treatment groups, having three horses each. Treatment groups 1-4 were administered the following pellet formulation: […]
(§2) Treatment groups 1-4 were provided the test substance top-dressed onto feed supplement and fed at a rate to deliver a dose, respectively, of approximately 0.6, 0.8, 1.0, and 1.2 mg spinosad/kg body weight/day, daily for the duration of the study. Treatment group 5 was the negative control group and was fed the above formulation without spinosad, and each horse in this treatment group received one ounce (28.3 g) of the negative control substance.
(§3) Fecal samples from the three horses in each treatment group were collected on study days—1, 3, 10, and 17, and bioassayed with eggs of house flies and stable flies, and the number of adult flies that emerged from the fecal sample bioassays were determined. The concentration of spinosyn A in the fecal samples was also determined.
(§4) Another study was carried out, similar to the above study, with a few changes. There were three spinosad administered groups, with the rates of spinosad being 0.4, 0.5, and 0.6 mg spinosad/kg of body weight. There was a positive control group, administered between 0.6 and 0.7 mg cyromazine/kg of body weight. There was also a negative control group.

[2] = test system: house fly (Musca domestica); experiment: Fecal bioassay: emergence of adult house flies from manure of horses given oral spinosad feed-through
Procedure: as §1, §2, §3
Another study was carried out, similar to the above study, with a few changes. There were three spinosad administered groups, with the rates of spinosad being 0.4, 0.5, and 0.6 mg spinosad/kg of body weight. […]

[3] = Observed adverse effects in horses under feed-through administration
Procedure: as §1, §2, §4

[4] = Concentration of spinosyn A in fecal samples of treated horses
Procedure: as §2, §3, §4

[5] = test system: horn flies (Haematobia irritans); experiment: Orally administered spinosad to control horn flies on cattle; conditions: flies remaining after 24 hours exposure
Procedure: A study was conducted to evaluate the efficacy of orally administered spinosad to control horn flies (Haematobia irritans), an obligate ectoparasite of cattle. A liquid spinosad formulation was topically applied to a palatable feed ration and fed to cattle at doses of 0.03, 0.10, 0.30 and 3.0 mg/kg of body weight. The number of horn flies remaining after 24 hours exposure to the cattle in an enclosed room was determined on test days 2, 4, 9, 11, 16, 18, 23 and 25 and was compared to the number remaining for the control group. The percent reduction in horn flies was notable for the 0.30 and 3.0 mg/kg test groups.

Compound	Reduction of the emergence of stable flies ([1]; second study, horses, 0.6-0.7 mg cyromazine/kg) [%]	effective in preventing emergence of adult house flies ([2]; first study, all 4 groups (0.6, 0.8, 1.0, 1.2 mg spinosad/kg body weight/day), all three post-administration collection days (3, 10, 17)) [%]	efficacy in preventing emergence of adult house flies ([2]; second study, all three spinosad groups (0.4, 0.5, 0.6 mg/kg), all three fecal sample collection dates) [%]	adverse effects ([3]; first study, horses, 0.6-1.2 mg spinosad/kg body weight/day, daily for the study)	adverse effects ([3]; second study, horses, 0.4, 0.5, 0.6 mg spinosad/kg)	mean spinosyn A concentration in fecal samples ([4]; first study, 0.6 mg spinosad/kg of body weight group, all three animals) [ppm]	mean spinosyn A concentration in fecal samples ([4]; first study, 0.8 mg spinosad/kg of body weight group, all three animals) [ppm]	mean spinosyn A concentration in fecal samples ([4]; first study, 1.2 mg spinosad/kg of body weight group) [ppm]	concentration of spinosyn A in fecal samples (lowest single sample) ([4]; first study, one horse, 0.6 mg spinosad/kg group, study day 3) [ppm]	concentration of spinosyn A in fecal samples (highest single sample) ([4]; first study, one horse, 1.2 mg spinosad/kg group, study day 10) [ppm]	mean spinosyn A concentration in fecal samples ([4]; second study, 0.4 mg spinosad/kg group, all three animals, all three post-administration dates) [ppm]	mean spinosyn A concentration in fecal samples ([4]; second study, 0.5 mg spinosad/kg group, all three animals, all three post-administration dates) [ppm]	mean spinosyn A concentration in fecal samples ([4]; second study, 0.6 mg spinosad/kg group, all three animals, all three post-administration dates) [ppm]	reduction in stable fly emergence ([1]; first study, 0.6 mg spinosad/kg of body weight group, study day 17 fecal sample collection) [%]	Reduction in emergence of stable fly adults ([1]; first study, horses, all 4 spinosad treatments (0.6-1.2 mg/kg/day) at all three post-administration collections, with one exception) [%]	reduction in stable fly emergence ([1]; second study, 0.4 mg spinosad/kg of body weight group, study day 10 fecal sample collection) [%]	Reduction of the emergence of stable flies ([1]; second study, horses, all three spinosad groups (0.4, 0.5, 0.6 mg/kg), with one exception) [%]	percent reduction in horn flies vs control group ([5]; oral 0.30 mg/kg in feed, from day 9 and on)	percent reduction in horn flies vs control group ([5]; oral 3.0 mg/kg in feed, all time points (days 2-25))
Nc1nc(N)nc(NC2CC2)n1 [cyromazine]	100	–	–	–	–	–	–	–	–	–	–	–	–	–	–	–	–	–	–
spinosad	–	100	100	no observed adverse effects	no observed adverse effects	3.4	2.9	5.5	0.9	8.6	2.2	3.2	3.7	97.25	100	99.3	100	at least 63.3%	at least 89.2%
